From patent US20140275010A1, “QUATERNARY SALTS” (priority 2013, published 2014)

What was measured:
[1] = system: WiDr cells: Colon cancer cells (wildtype SF3B1); test: Cell viability assay (CellTiter-Glo), WiDr cells; format: cell-based; details: 72 hr
Description: (§1) Cells are seeded in 96-well plate with 2000 cells/100 uL/well and incubated overnight. Spent media was removed and fresh media containing compound (100 uL/well) with appropriate 9 concentrations are added. Each compound was treated in duplicate or triplicate manner at each concentration. DMSO concentration was adjusted to be 0.1%. Another plate was dedicated as Tz plate which was added 0.1% DMSO in media (100 uL/well) followed by CellTiter-Glo® (Promega corp., 50 uL/well) for ATP measurement as a surrogate of cell viability. Values from this plate are used as Tz. Compound treated plates are incubated for 72 hr at 37 C. Then, CellTiter-Glo® (50 uL/well) was added and ATP level was measured. Values from compound treated wells are used as Ti and DMSO treated wells are used as C.
(§2) Percentage growth inhibition was calculated as:
(§3) [(Ti−Tz)/(C−Tz)]×100 for concentrations for which Ti>/=Tz
(§4) [(Ti−Tz)/Tz]×100 for concentrations for which Ti<Tz.
(§5) *[time zero, (Tz), control growth (C), and test growth in the presence of drug with dose (Ti)] Growth inhibition of 50% (GI50) was calculated from [(Ti−Tz)/(C−Tz)]×100=50, which was the drug concentration resulting in a 50% reduction in the net protein increase in control cells during the drug incubation. The LC50 (concentration of drug resulting in a 50% reduction in the measured value at the end of the drug treatment as compared to that at the beginning) indicating a net loss of cells following treatment was calculated from [(Ti−Tz)/Tz]×100=−50.
(§6) Emax was defined as highest growth inhibition that particular compound achieved in tested dose range.

[2] = system: Panc 05.04 cells: Pancreatic cancer cells (Q699H and K700E mutations in SF3B1); test: Cell viability assay (CellTiter-Glo), Panc 05.04 cells; format: cell-based; details: 72 hr; for Gl50 Panc 05.04: Panc 05.04 pancreatic cancer cells, SF3B1 Q699H and K700E, CellTiter-Glo; for Emax Panc 05.04: highest growth inhibition achieved in tested dose range
Description: as §1, §2, §3, §4, §5, §6

[3] = system: WiDr-R cells: Colon cancer cells (chemically-induced SF3B1 mutant which is resistant to E7107 (R1074H mutation)); test: Cell viability assay (CellTiter-Glo), WiDr-R cells; format: cell-based; details: 72 hr
Description: as §1, §2, §3, §4, §5, §6

[4] = system: Ad2 pre-mRNA splicing in HeLa nuclear extract; test: In vitro splicing (biochemical) assay; details: in vitro splicing of Ad2 pre-mRNA, 30° C., 90 min, read-out: Biochem IC50
Description: In Vitro Splicing (Biochemical) Assay Protocol
Biotin-labeled pre-mRNA of an adenovirus type 2 construct with a deletion of intervening sequence (Ad2)^1 was prepared by in vitro transcription. The Ad2 construct containing Exon 1 (41 nt), Intron (231 nt), and Exon 2 (72 nt) was generated by gene synthesis and cloned into the EcoRI and XbaI sites of pGEM-3Z (Promega) by Genewiz. The plasmid was then linearized by XbaI digestion and purified. In vitro transcription and purification of transcribed pre-mRNA were performed using the MEGAScript T7 kit (Invitrogen) and MEGAclear kit (Invitrogen), respectively, following the manufacturer instructions. The ratio of biotin-16-UTP (Roche) to cold UTP was 1:13 to incorporate approximately two biotin molecules per spliced Ad2 mRNA.
In vitro splicing assay was performed at 30° C. in 25 μL reaction mixtures containing 95 μg HeLa nuclear extract (Promega), 47 nM Ad2 pre-mRNA, 25 U RNasin RNase inhibitor (Promega), 1×SP buffer (0.5 mM ATP, 20 mM creatine phosphate, 1.6 mM MgCl2), and compounds in DMSO (with 1% final concentration of DMSO). After 90 min of incubation, the reaction was stopped by addition of 18 μL of 5M NaCl, and the mixtures were incubated with 10 μL of M-280 streptavidin-coated magnetic beads (Invitrogen) for 30 min at room temperature to capture Ad2 pre- and spliced mRNA. The beads were washed twice with 100 uL buffer containing 10 mM Tris pH=7.5, 1 mM EDTA and 2M NaCl, and then incubated in RNA gel loading buffer containing 95% formamide at 70° C. for 10 min to elute the RNAs. Ad2 RNAs were resolved by 6% TBE-UREA gel, transferred to a nylon membrane, UV cross-linked, and probed with an IR-dye labeled streptavidin (LiCor) using LiCor detection. The amount of spliced RNA was quantified by measuring the band fluorescent intensity using LiCor software.

C=CC[N+]1(C2CCCCCC2)CCN(C(=O)O[C@H]2/C=C/[C@H](C)[C@@H](/C(C)=C/C=C/[C@](C)(O)C[C@H]3O[C@@H]3[C@H](C)[C@@H](O)CC)OC(=O)C[C@H](O)CC[C@@]2(C)O)CC1.[Br-] [Cpd. 19]
Gl50 WiDr [1]: 551 nM | Gl50 Panc 05.04 [2]: 808.7 nM | Emax Panc 05.04 [2]: −45%

CC[C@H](O)[C@@H](C)[C@H]1O[C@@H]1C[C@H](C)/C=C/C=C(\C)[C@H]1OC(=O)C[C@H](O)CC[C@@](C)(O)[C@@H](OC(=O)N2CCC[N+](C)(C3CCCCC3)CC2)/C=C/[C@@H]1C.[I-] (stereo partly shown) [Cpd. 11]
Gl50 WiDr [1]: 958.0 nM | Gl50 WiDr-R [3]: >1000 nM | Gl50 Panc 05.04 [2]: 410.7 nM | Emax Panc 05.04 [2]: −87%

CC[C@H](O)[C@@H](C)[C@H]1O[C@@H]1C[C@H](C)/C=C/C=C(\C)[C@H]1OC(=O)C[C@H](O)CC[C@@](C)(O)[C@@H](OC(=O)N2CCC[N+](C)(C)CC2)/C=C/[C@@H]1C.[I-] [Cpd. 8]
Gl50 WiDr [1]: 568.0 nM | Gl50 WiDr-R [3]: >1000 nM | Gl50 Panc 05.04 [2]: 431.6 nM | Emax Panc 05.04 [2]: −74%

CCC(=O)C(C)C1OC1CC(C)(O)C=CC=C(C)C1OC(=O)CC(O)CCC(C)(O)C(OC(=O)N2CC[N+](C)(C3CCCCCC3)CC2)C=CC1C.[I-] (stereo not shown) [Cpd. 25]
Gl50 WiDr [1]: 5500.0 nM | Gl50 WiDr-R [3]: >5500 nM | Gl50 Panc 05.04 [2]: 10000 nM

CC[C@H](O)[C@@H](C)[C@H]1O[C@@H]1C[C@H](C)/C=C/C=C(\C)[C@H]1OC(=O)C[C@H](O)CC[C@@](C)(O)[C@@H](OC(=O)NCCC[N+](C)(C)C)/C=C/[C@@H]1C.[I-] [Cpd. 5]
Gl50 WiDr [1]: 176.0 nM | Gl50 WiDr-R [3]: >10000 nM | Gl50 Panc 05.04 [2]: 120.8 nM | Emax Panc 05.04 [2]: −79%

CC[C@H](O)[C@@H](C)[C@H]1O[C@@H]1C[C@H](C)/C=C/C=C(\C)[C@H]1OC(=O)C[C@H](O)CC[C@@](C)(OC(=O)N2CC[N+](C)(C(C)C)CC2)[C@@H](OC(C)=O)/C=C/[C@@H]1C.[I-] [Cpd. 27]
Gl50 WiDr [1]: 6781.0 nM | Gl50 WiDr-R [3]: >10000 nM | Gl50 Panc 05.04 [2]: 1115 nM | Emax Panc 05.04 [2]: −56%

CC[C@H](O)[C@@H](C)[C@H]1O[C@@H]1C[C@H](C)/C=C/C=C(\C)[C@H]1OC(=O)C[C@H](O)CC[C@@](C)(O)[C@@H](OC(=O)N2CCC([N+]3(C)CCCCC3)CC2)/C=C/[C@@H]1C.[I-] [Cpd. 14]
Gl50 WiDr [1]: 51.4 nM | Gl50 WiDr-R [3]: >1000 nM | Gl50 Panc 05.04 [2]: 53.3 nM | Emax Panc 05.04 [2]: −70%

CC[C@H](O)[C@@H](C)[C@H]1O[C@@H]1C[C@H](C)/C=C/C=C(\C)[C@H]1OC(=O)C[C@H](O)CC[C@@](C)(O)[C@@H](OC(=O)NCCC[N+]2(C)CCOCC2)/C=C/[C@@H]1C.[I-] [Cpd. 4]
Gl50 WiDr [1]: 67.4 nM | Gl50 Panc 05.04 [2]: 41.5 nM | Emax Panc 05.04 [2]: −75%

CC[C@H](O)[C@@H](C)[C@H]1O[C@@H]1C[C@H](C)/C=C/C=C(\C)[C@H]1OC(=O)C[C@H](O)CC[C@@](C)(O)[C@@H](OC(=O)N2C[C@H]3C[C@@H]2C[N+]3(C)C)/C=C/[C@@H]1C.[I-] [Cpd. 16]
Gl50 WiDr [1]: >1000 nM | Gl50 WiDr-R [3]: >1000 nM | Gl50 Panc 05.04 [2]: 1746 nM | Emax Panc 05.04 [2]: −27%

CC[C@H](O)[C@@H](C)[C@H]1O[C@@H]1C[C@H](C)/C=C/C=C(\C)[C@H]1OC(=O)C[C@H](O)CC[C@@](C)(O)[C@@H](OC(=O)N2CC3(C2)C[N+](C)(C2CCCCCC2)C3)/C=C/[C@@H]1C.[I-] [Cpd. 12]
Gl50 WiDr [1]: 106.0 nM | Gl50 WiDr-R [3]: >1000 nM | Gl50 Panc 05.04 [2]: 79.2 nM | Emax Panc 05.04 [2]: −89%

CC[C@H](O)[C@@H](C)[C@H]1O[C@@H]1C[C@H](C)/C=C/C=C(\C)[C@H]1OC(=O)C[C@H](O)CC[C@@](C)(O)[C@@H](OC(=O)N(C)C2CC[N+](C)(C)CC2)/C=C/[C@@H]1C.[I-] [Cpd. 15]
Gl50 WiDr [1]: 117.0 nM | Gl50 WiDr-R [3]: >1000 nM | Gl50 Panc 05.04 [2]: 234.8 nM | Emax Panc 05.04 [2]: −53%

CC[C@H](O)[C@@H](C)[C@H]1O[C@@H]1C[C@H](C)/C=C/C=C(\C)[C@H]1OC(=O)C[C@H](O)CC[C@@](C)(O)[C@@H](OC(=O)N2CC[N+](C)(C)CC2)/C=C/[C@@H]1C.[I-] [Cpd. 2]
Gl50 WiDr [1]: 8.9 nM | Gl50 WiDr-R [3]: >1000 nM | Gl50 Panc 05.04 [2]: 17.0 nM | Emax Panc 05.04 [2]: −69% | IC50 [4]: 50 nM

C=CC[N+]1(C2CCCCCC2)CCN(C(=O)O[C@H]2/C=C/[C@H](C)[C@@H](/C(C)=C/C=C/[C@](C)(O)C[C@H]3O[C@@H]3[C@H](C)[C@@H](O)CC)OC(=O)C[C@H](O)CC[C@@]2(C)O)CC1.[I-] [Cpd. 20]
Gl50 WiDr [1]: 289 nM | Gl50 Panc 05.04 [2]: 316.9 nM | Emax Panc 05.04 [2]: −67.5%

CC[C@H](O)[C@@H](C)[C@H]1O[C@@H]1C[C@H](C)/C=C/C=C(\C)[C@H]1OC(=O)C[C@H](O)CC[C@@](C)(OC(=O)N2CC[N+](C)(C3CCCCCC3)CC2)[C@@H](OC(C)=O)/C=C/[C@@H]1C.[I-] [Cpd. 26]
Gl50 WiDr [1]: 1491.0 nM | Gl50 WiDr-R [3]: >10000 nM | Gl50 Panc 05.04 [2]: 5305 nM

CC[C@H](O)[C@@H](C)[C@H]1O[C@@H]1C[C@H](C)/C=C/C=C(\C)[C@H]1OC(=O)C[C@H](O)CC[C@@](C)(O)[C@@H](OC(=O)N2CC[N+](C)(C3CCCCC3)CC2)/C=C/[C@@H]1C.[I-] [Cpd. 6]
Gl50 WiDr [1]: 227.0 nM | Gl50 WiDr-R [3]: >1000 nM | Gl50 Panc 05.04 [2]: 1593 nM | Emax Panc 05.04 [2]: −8.1%

CC[C@H](O)[C@@H](C)[C@H]1O[C@@H]1C[C@@](C)(O)/C=C/C=C(\C)[C@H]1OC(=O)C[C@H](O)CC[C@@](C)(O)[C@@H](OC(=O)N2CC[N+](C)(C3CCCCCC3)CC2)/C=C/[C@@H]1C.[I-] [Cpd. 17]
Gl50 WiDr [1]: 64.5 nM | Gl50 WiDr-R [3]: >1000 nM | Gl50 Panc 05.04 [2]: 607.8 nM | Emax Panc 05.04 [2]: −47% | IC50 [4]: < 100 nM

CC[C@H](O)[C@@H](C)[C@H]1O[C@@H]1C[C@H](C)/C=C/C=C(\C)[C@H]1OC(=O)C[C@H](O)CC[C@@](C)(OC(=O)N2CC[N+](C)(C)CC2)[C@@H](OC(C)=O)/C=C/[C@@H]1C.[I-] [Cpd. 28]
Gl50 WiDr [1]: 456.0 nM | Gl50 WiDr-R [3]: >1000 nM | Gl50 Panc 05.04 [2]: 413.3 nM | Emax Panc 05.04 [2]: −31%

CC[C@H](O)[C@@H](C)[C@H]1O[C@@H]1C[C@@](C)(O)/C=C/C=C(\C)[C@H]1OC(=O)C[C@H](O)CC[C@@](C)(O)[C@@H](OC(=O)N2CC[N+](Cc3ccccc3)(C3CCCCCC3)CC2)/C=C/[C@@H]1C.[Br-] [Cpd. 18]
Gl50 WiDr [1]: 162 nM | Gl50 Panc 05.04 [2]: 139.2 nM | Emax Panc 05.04 [2]: −55%

CC[C@H](O)[C@@H](C)[C@H]1O[C@@H]1C[C@H](C)/C=C/C=C(\C)[C@H]1OC(=O)C[C@H](O)CC[C@@](C)(O)[C@@H](OC(=O)N2CCC([N+]3(C)CCCC3)CC2)/C=C/[C@@H]1C.[I-] [Cpd. 13]
Gl50 WiDr [1]: 44.1 nM | Gl50 WiDr-R [3]: >1000 nM | Gl50 Panc 05.04 [2]: 80.4 nM | Emax Panc 05.04 [2]: −61%

CC[C@H](O)[C@@H](C)[C@H]1O[C@@H]1C[C@@](C)(O)/C=C/C=C(\C)[C@H]1OC(=O)CCCCC[C@@H](OC(=O)N2CC[N+](C)(C3CCCCCC3)CC2)/C=C/[C@@H]1C.[I-] [Cpd. 31]
Gl50 WiDr [1]: 3285 nM | Gl50 WiDr-R [3]: >10000 nM | Gl50 Panc 05.04 [2]: 2458 nM | Emax Panc 05.04 [2]: −22%
